These results are taken from patent publication US8530513B1, “Pharmaceutical uses of diterpene excavatolide B from a coral or an analogue thereof” (National Sun Yat-Sen University, priority 2012, dated 2013).

The structures appear in SMILES notation.

The test system of assay [1] is abdominal skins of female C57BL/6 mice. Description: TPA-induced vascular permeability assay (Evans blue extravasation). It counts as in vivo, mouse. As to conditions: Evans blue OD 620 nm. The procedure:
TPA-induced vascular permeability assay was modified and performed as previously described (Thurston G, Suri C, Smith K, McClain J, Sato T N, Yancopoulos G D, McDonald D M. Science 1999, 286:2511-2514). Shaved abdominal skins of female C57BL/6JNarl mice were topically treated with vehicle (acetone, 200 μl/site) or TPA (10 nmol in 200 μl acetone/site) for 6 h or treated with TPA for 10 min and subsequently treated for 6 h with the indicated concentrations of BrD1. Abdominal skins of untreated mice were used as the control group. One percent Evans blue dye (100 μl) was injected into mouse tail veins. After 20 min, anatomical appearances of mouse abdomens from the various treatments were photographically recorded. Abdominal skins representative of each test group were removed, turned over and photographed. Evans blue dye extravasated into the skins was extracted by incubation of the skin samples in 99% N,N-dimethyl-formamide overnight at 60° C. and optical density was measured at 620 nm.
Acute inflammatory reactions are known to include changes in vascular permeability, edema and cellular infiltration (Rao T S, Currie J L, Shaffer A F, Isakson P C. Inflammation 1993, 17:723-741). In order to evaluate the anti-inflammatory effect of BrD1 on TPA-induced dermatitis in a murine model, we initially evaluated the possible inhibitory effect of BrD1 on TPA-induced vascular permeability. […]

For assay [2] the test system is unchanged. Description: TPA-induced edema, H&E-stained skin sections. It counts as in vivo, mouse. As to conditions: topical 1 mg/site for 6 h after TPA. The procedure: Mice were treated or not treated topically on their shaven abdomens with acetone (vehicle only) or TPA (10 nmol in 200 μl acetone/site) for 6 h or treated first with TPA for 10 min, then with the indicated concentrations of BrD1 for 6 h. Mice were killed by cervical dislocation. Abdominal skin tissues were collected, fixed with formalin buffer and embedded in paraffin. Tissue sections ([…]) were cut and laid onto silanized glass slides and deparaffinized three times with xylene for 5 min each prior to rehydration using a graded alcohol bath. For hematoxyline and eosin staining, the sections were stained with hematoxyline and eosin staining. For immunohistochemical staining, the deparaffinized sections were boiled in 10 mM citrate buffer (pH 6.0) for 10 min for antigen retrieval and rinsed with PBS containing 0.05% Tween-20 buffer for 5 min. The sections were treated with 3% hydrogen peroxide in methanol for 15 min to decrease non-specific binding. […] Subsequently, peroxidase-binding sites were determined by staining with 3,3′-diaminobenzidine tetrahydrochloride (Dako). […]
Since increased vascular permeability is one of factors contributing to the formation of edema, we next evaluated whether BrD1 inhibited formation of edema in TPA-induced inflammation by examining H&E-stained longitudinal sections of skin samples.

The test system of the next assay is COX-2. The assay is described as follows: TPA-induced COX-2 expression in mouse skin, immunohistochemical staining. The format is in vivo. As to conditions: topical for 6 h after TPA, anti-COX-2 immunostaining.
The subject of the next assay is MMP-9 mRNA. Description: TPA-induced MMP-9 mRNA expression in mouse skin, RT-PCR. It counts as in vivo. As to conditions: for TPA-induced MMP-9 mRNA expression (in words): topical after TPA, 6 h, indicated concentrations. The procedure: Shaven abdominal skins of female C57BL/6JNarl mice were untreated or topically treated with vehicle (acetone, […]) or TPA (10 nmol in […]) for 6 h or treated first with TPA for 10 min and then with the indicated concentrations of BrD1 for 6 h. Total RNA was extracted from treated abdominal skins of female mice using TRIzol reagent (Invitrogen Corp., Carlsbad, Calif.). RT-PCR reactions using AccessQuick RT-PCR system (Promega, Madison, Wis.) were carried out as described previously. The primers contained the following sequences: mouse MMP-9 sense primer 5′-[…]-3′ (SEQ ID NO. 1), and anti-sense primer 5′-[…]-3′ (SEQ ID NO. 2); mouse GAPDH sense primer 5′-[…]-3′ (SEQ ID NO. 3), and anti-sense primer 5′-[…]-3′ (SEQ ID NO. 4). Gel images were scanned and densitometry analysis of the captured image was performed using Gene Tools software (Syngene, Cambridge, UK).
Matrix metalloproteinases (MMPs) play a crucial role in many physiological and pathological processes through remodeling extracellular matrix tissues (Stamenkovic I. J Pathol 2003, 200:448-464). Matrix metalloproteinase-9 (MMP-9), a gelatinase which has a key role in inflammatory response, is activated in skin during tissue injury (Shakarjian M P, Bhatt P, Gordon M K, Chang Y C, Casbohm S L, Rudge T L, Kiser R C, Sabourin C L, Casillas R P, Ohman-Strickland P, Riley D J, Gerecke D R. J Appl Toxicol 2006, 26:239-246). In order to evaluate the anti-inflammatory effect of BrD1 on MMP-9 activation in TPA-inflamed skin, BrD1 was topically applied after TPA treatment for 24 h. […] Inhibiton of TPA-inducedMMP-9 expression by BrD1 treatment could also be readily observed at the mRNA level.

With `CCCC(=O)O[C@H]1C/C(C)=C\[C@@H]2OC(=O)[C@]3(C)O[C@]23[C@@H](OC(C)=O)[C@H]2[C@@H](C)[C@@H](O)C[C@H](OC(C)=O)[C@]2(C)[C@H]1OC(C)=O` [BrD1, excavatolide B], the “level of inhibition of TPA-induced vascular permeability” value in assay [1] (0.5 mg/site topical for 6 h after TPA (10 nmol) 10 min) is on record as “approximately 58%”; in assay [1] (1 mg/site topical for 6 h after TPA (10 nmol) 10 min), approximately 77%. Besides, the “skin thickness (TPA-induced edema)” value in assay [2] is “substantially decreased the skin thickness”; in assay [2] (listed as excavatolide B) it was “substantially decreases the skin thickness”. Besides, the entries for the “TPA-induced COX-2 expression” value in the assay on COX-2 and with COX-2 (listed as excavatolide B) were “reduced the TPA-induced COX-2 expression in the epidermis” and “reduces the TPA-induced COX-2 expression in the epidermis”, respectively. In addition, the “inhibition of TPA-induced MMP-9 mRNA expression” value with MMP-9 mRNA (1 mg/site/mouse topical, 6 h after TPA) is not above 82%. The “TPA-induced MMP-9 mRNA expression (in words)” value in the assay with MMP-9 mRNA is reported as “significantly inhibited MMP-9 mRNA expression in a dose-dependent manner”; in the assay with MMP-9 mRNA (listed as excavatolide B), “significantly inhibits MMP-9 mRNA expression in a dose-dependent manner”.
